Reference: patent publication US5219825A, “Synergistic herbicidal compositions comprising herbicides which generate toxic oxygen radicals and chelating agents which inhibit their detoxification” (Yeda Research and Development Co., Ltd., priority 1986, dated 1993)

How the values were obtained:
[1] = tested on: superoxide dismutase extracted from chloroplasts of Conyza bonariensis biotype requiring high levels of oxidant herbicide; experiment: Inhibition of superoxide dismutase activity on gel; assay type: biochemical; conditions: gel soaked with 0.2% diethyldithiocarbamate
Procedure: (§1) Based on preliminary evidence that there was no difference in superoxides dismutase activity in whole leaves of these two biotypes and our own findings we assayed the levels of the dismutating enzymes in chloroplast extracts. The oxidant producing herbicides are effective in field conditions only in the light. […] This justifies assay of these enzymes in chloroplasts. Intact chloroplasts were isolated according to the method of Slovacek and Hind (Plant Physio. 60, 538 (1977)) except that 50 mM 2-(N-morpholino)ethanesulfonic acid buffer was used instead of the pyrophosphate buffer originally used in the chloroplast isolation medium. […] Chlorophyll content was measured in 80% acetone according to Arnon (Plant Physiol. 24 1 […]). Intactness of chloroplast was measured by means of ribulose-bis-phosphate-carboxylase activity in the chloroplast fraction supernatant according to Bjorkman (Physiol. Plant 21 1, (1968)), and proteins by the method of Bradford (Analyt. Biochem. 72 248 (1976)). […] We developed a technique to quantify superoxide dismutase by generating a standard curve by running different levels of known superoxide dismutase (ex bovine blood, Sigma) on the same gel. […] The gels were scanned in a Beckman DU-8 spectrophotometer, the peak areas were measured and related to the superoxide dismutase standard curve which was linear up to 0.2 enzyme units. […]

[2] = tested on: superoxide dismutase extracted from chloroplasts of Conyza bonariensis biotype requiring low levels of oxidant herbicide; experiment: Inhibition of superoxide dismutase activity on gel; assay type: biochemical; conditions: gel soaked with 0.2% diethyldithiocarbamate
Procedure: as §1

[3] = tested on: isolated Asparagus sprengeri cells; experiment: Chlorophyll loss in isolated cells (synergism at the cellular level); assay type: cell-based; conditions: for % of control chlorophyll: low light 305 μEin m^-2 s^-1
Procedure: Isolated cells offer an excellent rapid method of screening for phytotoxicity using a large number of potential chelators and synergists. Asparagus sprengeri cells were isolated from cladophylls of field grown plants using the procedure of Colman et al. (Can. J. Botany 57 1505, (1979)) except that the isolation, washing and culture buffer was 50 mM HEPES brought to pH 7.2 with KOH. The cladophylls were surface sterilized using 80% aqueous ethanol. After three centrifugations to remove broken cells, the cells were diluted to 10% packed volume and 0.75 ml were placed in each well of cluster dishes. The potential synergists in this example 0.02% w/v final concentration diethyldithiocarbamate (DDC) and an oxime of 4-octyl-2-acetyl-phenol (U.S. Pat. No. 4,215,219) which complex primarily with copper and di-2-ethylhexyl-phosphoric acid which complexes primarily with zinc (Flett, Chem and Ind. 17 706, (1977)) was placed with the herbicides atrazine and paraquat. All additions were made at 100 fold the final concentration of herbicide and synergist. Paraquat was dissolved in water and atrazine in methanol. The cluster dishes were incubated on a reciprocal shaker with a clear plastic bottom and illuminated from top and bottom with fluorescent lights emitting 135 μEin.m^-2 s^-1 (top) and 170 μEin.m^-2 s^-1 (bottom). The cells were kept mixed by the shaker and incubation was at room temperature. Incubation was stopped when there was visually obvious loss of chlorophyll due to treatments in a given experiment. The cells were removed to glass centrifugation tubes, centrifuged and the supernatant removed. One ml of 80% aqueous acetone was added to extract chlorophyll, the debris were sedimented by centrifugation and chlorophyll was spectrophotometrically determined at 645 and 663 nm according to Arnon (Plant Physiology 24 1, (1949)). […] In another experiment, a larger variety of chelating synergists and oxidant generating herbicides were used, and light was given at a much higher intensity 1000 μEin m^-2 s^-1 to better approach natural sunlight which is at 1200-1500 […].
Paraquat toxicity was measured 24 h after treatment and atrazine toxicity was measured 40 h after treatment.
Paraquat toxicity was measured 14 h after treatment.

[4] = tested on: Conyza bonariensis high herbicide requiring biotype; experiment: Whole plant spray, visual rating; assay type: in vivo
Excerpt: (§2) Seeds of Conyza bonariensis were germinated and plants cultivated as outlined in Example 1. Other species were germinated in a similar mixture and treated at 10 days.
(§3) The commercial fungicides, maneb [manganese ethylene-bis(dithiocarbamate) (polymeric)] and zineb [zinc ethylene-bis (dithiocarbamate) (polymeric)] were used, they have similar structures and effects as DDC, but are blocked and act as chelate controls […] to clarify that a synergism would be due to the chelating effect of diethyldithiocarbamate. […] They could not chelate copper due to their being blocked.
(§4) ^a visual ratings (scored 1 day after treatment): 0 no damage to
(§5) slight burn; 1 moderate burn (may regenerate); 2 severe burn (will die)
(§6) Similarly, both the paraquat resistant and sensitive biotypes of Conyza bonariensis were treated with two other oxidant generating herbicides. Atrazine (of the triazine group) is the most widely used oxidant generating herbicides in agriculture. We used various dilutions of a commercial wettable powder (Atranex 50WP-Agan Chemicals) to which we added 0.5% DDC. The effects were scored 24 h later. […] We also tested to see whether acifluorfen, a nitro diphenyl ether herbicide would be synergized. It is generally agreed that light and oxygen are required for its action via oxidant damage. We sprayed a commercial formulation of acifluorfen (Blazer, Rohm and Haas) to which were added 0.25% Tween-20 detergent, with and without DDC. The effects were scored 24 h later.

[5] = tested on: Conyza bonariensis low herbicide requiring biotype; experiment: Whole plant spray, visual rating; assay type: in vivo
Excerpt: as §2, §3, §4, §5, §6

[6] = tested on: Biotypes of certain weed species; conditions: cited from earlier work

## CCN(CC)C(=S)[S-].[Na+] [DDC, Sodium diethyldithiocarbamate]
[1]
  % inhibition of activity: 100%
[2]
  % inhibition of activity: 100%
[3]; no herbicide, DDC 0.02% alone, atrazine series, 40 h
  % of control chlorophyll: 120 % of control
[3]; no herbicide, DDC 0.02% alone, paraquat series, 24 h
  % of control chlorophyll: 116 % of control
[4]; atrazine 0 μM, DDC 0.5% alone, high herbicide requiring biotype, scored one day after treatment
  visual ratings: 0.6
[5]; atrazine 0 μM, DDC 0.5% alone, scored one day after treatment
  visual ratings: 1.6

## C[n+]1ccc(-c2cc[n+](C)cc2)cc1 [paraquat, 1,1'-dimethyl-4-4'bipyridium ion]
[3]; isolated cladophyll cells, 840 min
  chlorophyll remaining - % of control: 56 % of control
[3]; paraquat 10 μM, Tetraethylene-pentamine 0.025% where added, 14 h, 1000 μEin m^-2 s^-1
  chlorophyll remaining - % of control: 89 % of control
[3]; paraquat 20 μM, 4-Octyl-2-acetyl-phenol oxime 0.125% where added, 14 h, 1000 μEin m^-2 s^-1
  chlorophyll remaining - % of control: 74 % of control
[3]; paraquat 20 μM, Pyridine-2,6-dicarboxylic acid 0.005% where added, 14 h, 1000 μEin m^-2 s^-1
  chlorophyll remaining - % of control: 9 % of control
[3]; paraquat 20 μM, di-2-ethyl-hexyl-phosphoric acid 0.001% where added, 14 h, 1000 μEin m^-2 s^-1
  chlorophyll remaining - % of control: 72 % of control
[3]; paraquat 10^-6, DDC 0.02% where added, 24 h, 1 µM
  % of control chlorophyll: 107 % of control
[4]; 1 mM spray of paraquat, paraquat resistant biotype
  effect of paraquat spray: hardly affected
[4]; paraquat 1000 μM spray to run-off, DDC 0.75% W/V where added, high herbicide requiring biotype, scored 1 day after treatment
  visual rating: 0.9
[5]; paraquat 30 μM spray to run-off, DDC 0.75% W/V where added, scored 1 day after treatment
  visual rating: 1.8
[6]; biotypes that have evolved resistance to paraquat
  rate that does not kill resistant biotypes: > 16 kg/ha
[6]; sensitive biotype of the same species
  rate that controls the sensitive biotype: 1 kg/ha
